The values below are quoted from earlier work in patent US8155888B2, “Method and apparatus for assessing polypeptide aggregation” (Cambridge University Technical Services Ltd., priority 2003, dated 2012).

Like-named read-outs stand apart in the source and are kept apart here. Where no end group is shown, it is not given here.

Assay in series [1]: not given
The source holds these as a separate data set.

Assay in series [2]: not given
This is another data set of the same source.

For series [3] the following is noted: mutant versus wild type; growth phase only; from literature data.
The mark [4] stands for this setting: Table 1, normalised from 0 (high) to 1 (low).
Setting [5] is: Table 5, normalized from 0 (high) to 1 (low).
Setting [6] is: Table 1, neutral pH, partition coefficients from water to octanol.
Where [7] appears, read: Table 5, neutral pH, partition coefficients from water to octanol.

As for `C[C@H](N)C(=O)O` [Ala (A)], the charge is recorded as 0 (Table 1, neutral pH) and 0 (Table 5, neutral pH). In addition, the β-sheet propensity in series [1] (setting [4]) and in series [1] (setting [5]) was 0.47 each time. Also, the hydrophobicity is -0.0932 kcal/mol in series [2] (setting [6]) and -0.39 kcal/mol in series [2] (setting [7]).

On to `NC(=O)C[C@H](N)C(=O)O` [Asn (N)], for which the charge is reported as 0 (Table 1, neutral pH) and 0 (Table 5, neutral pH). Further, the β-sheet propensity in series [1] (setting [4]) and in series [1] (setting [5]) was 0.40 each time. Further, the hydrophobicity in series [2] (setting [6]) was 0.457 kcal/mol; in series [2] (setting [7]), 1.91 kcal/mol.

Consider `N[C@@H](CC(=O)O)C(=O)O` [Asp (D), aspartic acid], for which the charge (Table 1, neutral pH) was −1 and the charge (Table 5, neutral pH) is reported as −1. The β-sheet propensity in series [1] (setting [4]) and in series [1] (setting [5]) was 0.72 throughout. Further, the hydrophobicity in series [2] (setting [6]) was 0.911 kcal/mol; in series [2] (setting [7]), 3.81 kcal/mol.

As to `N[C@@H](CS)C(=O)O` [Cys (C)], the charge (Table 1, neutral pH) is recorded as 0 and the charge (Table 5, neutral pH) is reported as 0. Also, the β-sheet propensity in series [1] (setting [4]) and in series [1] (setting [5]) was 0.25 each time. In addition, the hydrophobicity was -0.0598 kcal/mol in series [2] (setting [6]) and -0.25 kcal/mol in series [2] (setting [7]).

For `NC(=O)CC[C@H](N)C(=O)O` [Gln (Q)], the charge (Table 1, neutral pH) was 0 and the charge (Table 5, neutral pH) is given as 0. The β-sheet propensity in series [1] (setting [4]) and in series [1] (setting [5]) was 0.34 each time. Besides, the hydrophobicity in series [2] (setting [6]) was 0.311 kcal/mol; in series [2] (setting [7]), 1.30 kcal/mol.

As for `N[C@@H](CCC(=O)O)C(=O)O` [Glu (E), glutamic acid], the charge by setting is: (Table 1, neutral pH) −1; (Table 5, neutral pH) −1. The β-sheet propensity in series [1] (setting [4]) and in series [1] (setting [5]) was 0.35 in each case.

Turning to `NCC(=O)O` [Gly (G), glycine], the charge reads like this: (Table 1, neutral pH) 0; (Table 5, neutral pH) 0. The β-sheet propensity in series [1] (setting [4]) and in series [1] (setting [5]) was 0.60 throughout. Also, the hydrophobicity is 0 kcal/mol in series [2] (setting [6]) and 0.00 kcal/mol in series [2] (setting [7]).

Regarding `N[C@@H](Cc1c[nH]cn1)C(=O)O` [His (H), histidine], the charge was 0 (Table 1, neutral pH); “+1” (Table 1, value in brackets, pH lower than 6.0); 0 (Table 5, neutral pH); “+1” (Table 5, value in brackets, pH lower than 6.0). The β-sheet propensity in series [1] (setting [4]) and in series [1] (setting [5]) was 0.37 in each case. Besides, the hydrophobicity in series [2] (setting [6]) was 0.153 kcal/mol; in series [2] (Table 1, value in brackets, pH lower than 6.0, histidine positively charged), 0.686 kcal/mol; in series [2] (setting [7]) it was 0.64 kcal/mol; in series [2] (Table 5, value in brackets, pH lower than 6.0, histidine positively charged), 2.87 kcal/mol.

In the case of `CC[C@H](C)[C@H](N)C(=O)O` [Ile (I)], the charge runs as follows: (Table 1, neutral pH) 0; (Table 5, neutral pH) 0. The β-sheet propensity in series [1] (setting [4]) and in series [1] (setting [5]) was 0.10 throughout. Moreover, the hydrophobicity was -0.435 kcal/mol in series [2] (setting [6]) and -1.82 kcal/mol in series [2] (setting [7]).

Take `CSCC[C@H](N)C(=O)O` [Met (M)]: the charge runs as follows: (Table 1, neutral pH) 0; (Table 5, neutral pH) 0. For the same compound, the β-sheet propensity in series [1] (setting [4]) and in series [1] (setting [5]) was 0.26 each time. Moreover, the hydrophobicity in series [2] (setting [6]) was -0.229 kcal/mol; in series [2] (setting [7]), -0.96 kcal/mol.

As for `N[C@@H](Cc1ccccc1)C(=O)O` [Phe (F), phenylalanine], the charge runs as follows: (Table 1, neutral pH) 0; (Table 5, neutral pH) 0. Further, the β-sheet propensity in series [1] (setting [4]) and in series [1] (setting [5]) was 0.13 throughout. Moreover, the hydrophobicity in series [2] (setting [6]) was -0.543 kcal/mol; in series [2] (setting [7]), -2.27 kcal/mol.

For `O=C(O)[C@@H]1CCCN1` [Pro (P), proline], the charge is, setting by setting: (Table 1, neutral pH) 0; (Table 5, neutral pH) 0. Also, the hydrophobicity in series [2] (setting [6]) was -0.237 kcal/mol; in series [2] (setting [7]) it was -0.99 kcal/mol.

On to `N[C@@H](CO)C(=O)O` [Ser (S), serine], for which the charge is, setting by setting: (Table 1, neutral pH) 0; (Table 5, neutral pH) 0. The β-sheet propensity in series [1] (setting [4]) and in series [1] (setting [5]) was 0.30 each time. Further, the hydrophobicity in series [2] (setting [6]) was 0.296 kcal/mol; in series [2] (setting [7]), 1.24 kcal/mol.

On to `C[C@@H](O)[C@H](N)C(=O)O` [Thr (T)], for which the charge by setting is: (Table 1, neutral pH) 0; (Table 5, neutral pH) 0. Further, the β-sheet propensity in series [1] (setting [4]) and in series [1] (setting [5]) was 0.06 throughout. Moreover, the results for the hydrophobicity in series [2] (setting [6]) and in series [2] (setting [7]) were 0.239 kcal/mol and 1.00 kcal/mol, respectively.

Turning to `N[C@@H](Cc1ccc(O)cc1)C(=O)O` [Tyr (Y)], the charge is, setting by setting: (Table 1, neutral pH) 0; (Table 5, neutral pH) 0. The β-sheet propensity in series [1] (setting [4]) and in series [1] (setting [5]) was 0.11 each time. Besides, the hydrophobicity in series [2] (setting [6]) was -0.351 kcal/mol; in series [2] (setting [7]), -1.47 kcal/mol.

Take `CC(C)[C@H](N)C(=O)O` [Val (V)]: the charge (Table 1, neutral pH) is listed as 0 and the charge (Table 5, neutral pH) is reported as 0. The β-sheet propensity in series [1] (setting [4]) and in series [1] (setting [5]) was 0.13 in each case. Also, the hydrophobicity in series [2] (setting [7]) is -1.30 kcal/mol.

“A21G: A21G mutation of Aβ (amyloid-β peptide)”: the “observed ln(νmut/νwt)” value in series [3] is on record as −0.07.

As to “D23N: D23N mutation of Aβ (amyloid-β peptide)”, in series [3], the “observed ln(νmut/νwt)” value was 3.97.

On to “E22G: E22G mutation of Aβ (amyloid-β peptide)”, for which, in series [3], the “observed ln(νmut/νwt)” value is reported as 2.03.

Take “E22K: E22K mutation of Aβ (amyloid-β peptide)”: the “observed ln(νmut/νwt)” value in series [3] is on record as 0.92.

“E22Q: E22Q mutation of Aβ (amyloid-β peptide)”: the “observed ln(νmut/νwt)” value in series [3] is recorded as 2.92.

Regarding “F19T: F19T mutation of Aβ (amyloid-β peptide)”, the “observed ln(νmut/νwt)” value in series [3] is −2.48.

For the compound “F23A: single-point mutation F23A of amylin (KCNTATCATQRLANFLVHSSNNAGAILSSTNVGSNTY; ends and bridges not checked; cysteine pairing not given here; UniProt P10997 34-70, looked up, variant F23A)”, the “observed ln(νmut/νwt)” value in series [3] is −2.65.

Take “G24A: single-point mutation G24A of amylin (KCNTATCATQRLANFLVHSSNNFAAILSSTNVGSNTY; ends and bridges not checked; cysteine pairing not given here; UniProt P10997 34-70, looked up, variant G24A)”: the “observed ln(νmut/νwt)” value in series [3] is listed as −0.03.

“I26A: single-point mutation I26A of amylin (KCNTATCATQRLANFLVHSSNNFGAALSSTNVGSNTY; ends and bridges not checked; cysteine pairing not given here; UniProt P10997 34-70, looked up, variant I26A)”: in series [3], the “observed ln(νmut/νwt)” value is given as −2.39.

With “L27A: single-point mutation L27A of amylin (KCNTATCATQRLANFLVHSSNNFGAIASSTNVGSNTY; ends and bridges not checked; cysteine pairing not given here; UniProt P10997 34-70, looked up, variant L27A)”, the “observed ln(νmut/νwt)” value in series [3] is recorded as −0.93.

As to “N22A: single-point mutation N22A of amylin (KCNTATCATQRLANFLVHSSNAFGAILSSTNVGSNTY; ends and bridges not checked; cysteine pairing not given here; UniProt P10997 34-70, looked up, variant N22A)”, the “observed ln(νmut/νwt)” value in series [3] is recorded as 0.69.

In the case of “S20G: S20G mutation of amylin (KCNTATCATQRLANFLVHSGNNFGAILSSTNVGSNTY; ends and bridges not checked; cysteine pairing not given here; UniProt P10997 34-70, looked up, variant S20G)”, the “observed ln(νmut/νwt)” value in series [3] is listed as 1.01.
